From patent US9802901B2, “Antibacterial 2H-indazole derivatives” (priority 2013, dated 2017)
In brackets after ≈: the same amount, converted by molar mass.

Tests used:
Test in all cases: Bacterial growth minimal inhibitory concentration (broth microdilution, CLSI M7-A7)
E. coli ATCC25922 = type: cell-based, Escherichia coli; conditions: cation-adjusted Mueller-Hinton Broth, microdilution, quinolone-sensitive strain; for MIC: Escherichia coli, ATCC25922, read-out: MIC for E. coli ATCC25922
Method: (§1) Minimal Inhibitory Concentrations (MICs; mg/L) were determined in cation-adjusted Mueller-Hinton Broth by a microdilution method following the description given in “Methods for Dilution Antimicrobial Susceptibility Tests for Bacteria that Grow Aerobically”, Approved standard, 7th ed., Clinical and Laboratory Standards Institute (CLSI) Document M7-A7, Wayne, Pa., USA (2006).
(§2) All Example compounds, except the compound of Example 62, were tested against several Gram-positive and Gram-negative bacteria. […] K. pneumoniae A-651 and Acinetobacter baumannii T6474 are multiply-resistant strains (in particular quinolone-resistant), while E. coli ATCC25922 and P. aeruginosa ATCC27853 are quinolone-sensitive strains.

P. aeruginosa ATCC27853 = type: cell-based, Pseudomonas aeruginosa; conditions: cation-adjusted Mueller-Hinton Broth, microdilution, quinolone-sensitive strain; for MIC: Pseudomonas aeruginosa, ATCC27853, read-out: MIC for P. aeruginosa ATCC27853
Method: as §1, §2

[1] = test system: Acinetobacter baumannii T6474; type: cell-based; conditions: cation-adjusted Mueller-Hinton Broth, microdilution, multiply-resistant (quinolone-resistant) strain; for MIC: Acinetobacter baumannii, T6474, read-out: MIC for A. Baumannii T6474
Method: as §1, §2

K. pneumoniae A-651 = type: cell-based, Klebsiella pneumoniae; conditions: cation-adjusted Mueller-Hinton Broth, microdilution, multiply-resistant (quinolone-resistant) strain; for MIC: Klebsiella pneumoniae, A651, read-out: MIC for K. Pneumoniae A-651
Method: as §1, §2

| SMILES | MIC (E. coli ATCC25922) | MIC (P. aeruginosa ATCC27853) | MIC [1] | MIC (K. pneumoniae A-651) | MIC for E. coli ATCC25922 (E. coli ATCC25922) | MIC for P. aeruginosa ATCC27853 (P. aeruginosa ATCC27853) | MIC for A. Baumannii T6474 [1] | MIC for K. Pneumoniae A-651 (K. pneumoniae A-651) |
| --- | --- | --- | --- | --- | --- | --- | --- | --- |
| C[C@@](CCn1cc2cc(C#CC#C[C@@H]3C[C@H]3CO)ccc2n1)(C(=O)NO)S(C)(=O)=O.O=CO [Example 37] |  |  |  |  | 0.063 µg/mL | 0.25 µg/mL | 2 µg/mL | 0.063 µg/mL |
| C[C@@](CCn1cc2cc(C#CC#CC3(CO)CCC3)ccc2n1)(C(=O)NO)S(C)(=O)=O [Example 73, (R)—N-hydroxy-4-(5-((1-(hydroxymethyl)cyclobutyl)buta-1,3-diyn-1-yl)-2H-indazol-2-yl)-2-methyl-2-(methylsulfonyl)butanamide] | 0.125 µg/mL (≈ 0.282 µM) | 1 µg/mL (≈ 2.25 µM) | 32 µg/mL (≈ 72.1 µM) | 0.25 µg/mL (≈ 0.564 µM) |  |  |  |  |
| COc1ccc(-c2ccc3nn(CC[C@](C)(C(=O)NO)S(C)(=O)=O)cc3c2)cc1 [Example 2, (R)—N-hydroxy-2-methylsulfonyl-4-[5-(4-methoxy-phenyl)-indazol-2-yl]-2-methyl-butanamide] | 0.125 µg/mL (≈ 0.299 µM) | 4 µg/mL (≈ 9.58 µM) | 1 µg/mL (≈ 2.4 µM) | 0.5 µg/mL (≈ 1.2 µM) |  |  |  |  |
| CN(C)c1ccc(-c2ccc3nn(CC[C@](C)(C(=O)NO)S(C)(=O)=O)cc3c2)cc1 [Example 11, (R)-4-[5-(4-dimethylamino-phenyl)-indazol-2-yl]-N-hydroxy-2-methylsulfonyl-2-methyl-butanamide] | 0.063 µg/mL (≈ 0.146 µM) | 8 µg/mL (≈ 18.6 µM) | 2 µg/mL (≈ 4.65 µM) | 0.063 µg/mL (≈ 0.146 µM) |  |  |  |  |
| COCCOc1ccc(-c2ccc3nn(CC[C@](C)(C(=O)NO)S(C)(=O)=O)cc3c2)cc1 [Example 52, (R)—N-hydroxy-4-(5-(4-(2-methoxyethoxy)phenyl)-2H-indazol-2-yl)-2-methyl-2-(methylsulfonyl)butanamide] | 0.125 µg/mL (≈ 0.271 µM) | 2 µg/mL (≈ 4.33 µM) | 1 µg/mL (≈ 2.17 µM) | 0.5 µg/mL (≈ 1.08 µM) |  |  |  |  |
| C[C@@](CCn1cc2cc(C#CC#CCC3(O)CC(CO)C3)ccc2n1)(C(=O)NO)S(C)(=O)=O (some centres unmarked) [Example 66] |  |  |  |  | 1 µg/mL | 2 µg/mL | >32 µg/mL | 4 µg/mL |
| C[C@@](CCn1cc2cc(C#CC#CC34CC(CO)(C3)C4)ccc2n1)(C(=O)NO)S(C)(=O)=O [Example 57, (R)—N-hydroxy-4-(5-((3-(hydroxymethyl)bicyclo[1.1.1]pentan-1-yl)buta-1,3-diyn-1-yl)-2H-indazol-2-yl)-2-methyl-2-(methylsulfonyl)butanamide] | 0.125 µg/mL (≈ 0.274 µM) | 0.5 µg/mL (≈ 1.1 µM) | 8 µg/mL (≈ 17.6 µM) | 0.25 µg/mL (≈ 0.549 µM) |  |  |  |  |

Second part, led by results:

| MIC (E. coli ATCC25922) | MIC (P. aeruginosa ATCC27853) | MIC [1] | MIC (K. pneumoniae A-651) | SMILES | MIC for E. coli ATCC25922 (E. coli ATCC25922) | MIC for P. aeruginosa ATCC27853 (P. aeruginosa ATCC27853) | MIC for A. Baumannii T6474 [1] | MIC for K. Pneumoniae A-651 (K. pneumoniae A-651) |
| --- | --- | --- | --- | --- | --- | --- | --- | --- |
| 0.125 µg/mL (≈ 0.26 µM) | 1 µg/mL (≈ 2.08 µM) | 0.125 µg/mL (≈ 0.26 µM) | 0.063 µg/mL (≈ 0.131 µM) | C[C@@](CCn1cc2cc(C#Cc3ccc([C@@H]4C[C@H]4CO)cc3)ccc2n1)(C(=O)NO)S(C)(=O)=O [Example 41, (R)—N-hydroxy-4-(5-((4-((1R,2R)-2-(hydroxymethyl)cyclopropyl)phenyl)ethynyl)-2H-indazol-2-yl)-2-methyl-2-(methylsulfonyl)butanamide] |  |  |  |  |
| 0.25 µg/mL (≈ 0.497 µM) | 1 µg/mL (≈ 1.99 µM) | 8 µg/mL (≈ 15.9 µM) | 1 µg/mL (≈ 1.99 µM) | C[C@@](CCn1cc2cc(C#Cc3ccc(NC(=O)CO)c(F)c3)ccc2n1)(C(=O)NO)S(C)(=O)=O [Example 45, (R)-4-(5-((3-fluoro-4-(2-hydroxyacetamido)phenyl)ethynyl)-2H-indazol-2-yl)-N-hydroxy-2-methyl-2-(methylsulfonyl)butanamide] |  |  |  |  |
| 1 µg/mL (≈ 2.01 µM) | 2 µg/mL (≈ 4.02 µM) | 2 µg/mL (≈ 4.02 µM) | 1 µg/mL (≈ 2.01 µM) | C[C@@](CCn1cc2cc(C#Cc3ccc(C4(CO)COC4)cc3)ccc2n1)(C(=O)NO)S(C)(=O)=O [Example 43, (R)—N-hydroxy-4-(5-((4-(3-(hydroxymethyl)oxetan-3-yl)phenyl)ethynyl)-2H-indazol-2-yl)-2-methyl-2-(methylsulfonyl)butanamide] |  |  |  |  |
| 0.063 µg/mL (≈ 0.138 µM) | 0.5 µg/mL (≈ 1.1 µM) | 2 µg/mL (≈ 4.39 µM) | 0.125 µg/mL (≈ 0.274 µM) | C[C@@H](O)c1ccc(C#Cc2ccc3nn(CC[C@](C)(C(=O)NO)S(C)(=O)=O)cc3c2)cc1 [Example 33, (R)—N-hydroxy-4-(5-((4-((R)-1-hydroxyethyl)phenyl)ethynyl)-2H-indazol-2-yl)-2-methyl-2-(methylsulfonyl)butanamide] |  |  |  |  |
